# Publication PMC9851200, “Multiparameter phenotypic screening for endogenous TFEB and TFE3 translocation identifies novel chemical series modulating lysosome function” (Autophagy, 2022)
# Where two headings read alike, the source gives them in different places.
# Assays:
# Settings in all cases: PKIS2 primary screening
# SH-SY5Y cells [1] = tested on: SH-SY5Y cells; note: reference of the scale not given here
# SH-SY5Y cells [2] = test: Nuclear count from microscopy images (cellular growth and toxicity); note: reference of the scale not given here
# endogenous TFE3 = test: TFE3 nuclear translocation, immunocytochemistry high-content imaging; type: cell-based
# endogenous TFEB = test: TFEB nuclear translocation, immunocytochemistry high-content imaging; type: cell-based
# SH-SY5Y cells [3] = test: AK (adenylate kinase) release ToxiLight cytotoxicity assay; note: reference of the scale not given here
SMILES,DQ Intensity (SH-SY5Y cells [1]),DQ Spot (SH-SY5Y cells [1]),Nuclear Count (SH-SY5Y cells [2]),TFE3 % (endogenous TFE3) [%],TFEB % (endogenous TFEB) [%],AK (SH-SY5Y cells [3]),DQ Intensity (SH-SY5Y cells [1]; DQ Red BSA intensity),DQ Spot (SH-SY5Y cells [1]; DQ Red BSA spot count)
CC(C)c1nc(-c2ccc(F)c(NS(=O)(=O)c3c(F)cccc3F)c2)c(-c2ccnc(Nc3ccc(N4CCOCC4)nc3)n2)s1 [UNC10225089A],67.64,97.60,76.92,14.74,9.24,110.72,–,–
CS(=O)(=O)CCNCc1nc(-c2ccc3ncnc(Nc4ccc(OCc5cccc(F)c5)c(Cl)c4)c3c2)cs1.Cl [UNC10225091A],–,–,114.33,9.84,5.83,98.46,63.39,82.01
CCn1c(-c2c(N)noc2C)nc2cnccc21 [UNC10225095A],103.20,105.92,110.85,10.37,3.05,112.40,–,–
FC(F)(F)c1ccc(/C=C/c2cncnc2Nc2ccc3[nH]c(Cc4ccccc4)nc3c2)cc1 [UNC10225096A],–,–,103.45,12.52,6.39,102.23,116.48,101.82
Cc1cccc2c(-c3ccncn3)c(-c3ccc(F)cc3)nn12 [UNC10225097A],92.70,100.21,79.09,7.36,5.54,80.54,–,–
Cc1c(O)cccc1Nc1ccnc2ccc(C(F)(F)F)cc12.Cl [UNC10225099A],–,–,127.64,5.56,9.28,102.37,122.68,95.32
Fc1cccc(COc2ccc(Nc3ncnc4sc(-c5ccc[nH]5)cc34)cc2Cl)c1 [UNC10225101A],–,–,106.63,15.82,8.38,123.35,109.09,86.09
Nc1ncnc2scc(-c3ccc(NC(=O)Cc4cc(F)ccc4F)cc3)c12.O=C(O)C(F)(F)F [UNC10225107A],–,–,68.49,9.54,8.26,124.57,106.01,96.58
COc1cc(Nc2ccnc3ccc(C(F)(F)F)cc23)cc(OC)c1OC [UNC10225109A],–,–,107.71,7.95,5.89,98.24,93.31,111.66
CCn1c(-c2cccnc2O)nc2cnccc21 [UNC10225114A],101.68,98.93,103.96,9.51,10.78,77.22,–,–
CS(=O)(=O)CCNCc1nc(-c2ccc3ncnc(Nc4ccc5c(cnn5Cc5ccccc5)c4)c3c2)cs1.Cl.Cl [UNC10225115A],–,–,105.59,17.35,3.62,99.64,104.52,112.81
Fc1ccc(-c2nn3cccc(F)c3c2-c2ccncc2)cc1 [UNC10225116A],–,–,80.47,11.01,9.32,96.78,138.45,107.80
NC(=O)Nc1sc(-c2ccc(F)cc2)cc1C(N)=O [UNC10225118A],77.43,92.26,81.29,11.46,7.01,76.60,–,–
Cc1ccc(-c2cc(-c3c[nH]nc3-c3ccccn3)ccn2)cc1 [UNC10225125A],–,–,147.86,5.68,3.15,116.20,86.68,93.68
COc1ccc(COc2cc(-n3cnc4ccccc43)sc2C(N)=O)cc1 [UNC10225127A],119.47,107.75,109.00,11.50,4.73,69.30,–,–
Cl.Oc1cc(-c2nc(-c3ccccc3)[nH]c2-c2ccncc2)ccc1Cl [UNC10225128B],–,–,80.05,11.76,6.45,91.39,96.34,92.51
O=c1cc(N2CCOCC2)nc2n(Cc3cccc(Cl)c3)ccn12 [UNC10225131A],103.05,113.71,104.22,11.28,5.81,96.90,–,–
